pIC50: −log10 of the molar value.

In data set [1] the test system is human platelet Caspase-3 activity. In words: Human platelet toxicity experiment (Caspase-3 activity assay). It counts as cell-based. Particulars: 90 min, data normalized, reference ABT-199. How it is done: Experimental Example 6: Human Platelet Toxicity Experiment (Caspase-3 Activity Assay)
10 mL of human whole blood was collected using a heparin sodium anticoagulation tube, mixed well by turning upside down, and centrifuged at 90 g for 10 min. The supernatant was collected and centrifuged at 1950 g for 10 min. The supernatant was discarded, and the residue was resuspended in 4 mL of PBS, and centrifuged at 1190 g for 5 min, and the procedure was repeated once. The supernatant was discarded, and the platelets were resuspended in PBS and adjusted to the density of 2-3×10^8 cells/mL. Cells were seeded into a 96-well plate at a density of 2-3×10^7 cells/mL and at 100 μL/well. 50 μL of control buffer was added to each negative control well, and 50 μL of compound at a corresponding concentration was added to each compound well, so that the final concentration of the compound was 2.5 μM, 2 μM, 1 μM or 0.5 μM, followed by incubation in an incubator at 37° C. for 90 min. The liquids in the 96-well plate were transferred to 1.5 mL centrifuge tubes, respectively. The tubes were centrifuged at 4° C. and 6000 g for 5 min, and placed on ice for later use after the supernatant was discarded. 5× lysis buffer was diluted into 1× lysis buffer with water in the kit, and protease inhibitor cocktail was added at a 1:200 ratio to prepare a lysis mixture for later use. 40 μL of lysis mixture was added to each centrifuge tube, and the platelets at the bottom were resuspended using a pipette. The suspension was lysed on ice for 15-20 min and centrifuged at 4° C. and 14,000 g for 10 min. The sample was sub-packaged for later use. 10× assay buffer was diluted into 1× assay buffer with water in the kit, and substrate Ac-DEVD-AMC was added at a 1:600 ratio to prepare a reaction mixture. 5 μL of assay buffer and 40 μL of reaction mixture were added to each blank control well. 5 μL of control platelet lysate and 40 μL of reaction mixture were added to each negative control well. 5 μL of platelet lysate and 40 μL of reaction mixture were added to each compound well. In this procedure, 40 μL of reaction mixture was added at last. The resulting mixture was mixed gently, and the plate was read by a PE Envision multi-functional microplate reader (excitation: 360 nm, emission: 460 nm) once every 10 min for 6 times. Caspase-3 activity was determined based on the intensity of the released AMC fluorescence, that is the slope of the fitted line to which each well corresponds represents Caspase activity (all data were normalized and the reference was ABT-199).

The target in another data set is T1, BCL-XL/BAK (Homo sapiens, UniProt Q07817).
T1 construct: purchased Cisbio
T1 sequence (Q07817 whole entry, species assumed): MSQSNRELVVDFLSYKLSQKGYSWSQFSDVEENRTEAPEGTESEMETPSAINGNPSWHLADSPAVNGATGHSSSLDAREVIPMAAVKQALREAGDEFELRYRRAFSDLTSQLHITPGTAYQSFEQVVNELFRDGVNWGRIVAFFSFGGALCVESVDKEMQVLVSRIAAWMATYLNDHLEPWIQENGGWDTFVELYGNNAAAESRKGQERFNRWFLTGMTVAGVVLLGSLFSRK
Briefly: Screening on inhibitory activity for BCL-XL/BAK binding (Cisbio HTRF kit). An outline of the steps:
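Tag1-BCL-XL and Tag2-BAK (2 nM and 80 nM before mixing) were combined with compounds at final 2000–0.488 nM (4-fold, 7 points, duplicates) for 15 min at 25° C. Eu3+ anti-Tag1 and XL665 anti-Tag2 were then added for ≥2 h at 25° C. HTRF (620/665 nm) gave IC50 by four-parameter fit.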

The next data set has as its target T2, BCL-2/BAK (Homo sapiens, UniProt P10415).
T2 construct: purchased Cisbio
In words: Screening on inhibitory activity for BCL-2/BAK binding (Cisbio HTRF kit). In a few lines: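 HTRF competition assay: Tag1-BCL-2 and Tag2-BAK working dilutions were 5 nM and 120 nM. Compound (200–0.0488 nM final, 4-fold, 7 points, duplicates) was incubated with the proteins for 15 min at 25 °C, then with Eu-cryptate/XL665 antibodies for ≥2 h at 25 °C. IC50 was derived from a four-parameter fit.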
A general note: Time-resolved FRET reads energy transfer from a long-lived donor to a nearby acceptor.

The subject of a further data set is RS4;11 cells. Briefly: Inhibitory effect on proliferation of RS4;11 cells (CCK-8). Type of data set: cell-based, human. In a few lines: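 RS4;11 cells were seeded at 1×10^5 cells/mL in RPMI with 5% FBS and incubated 24 h at 37° C, 5% CO2 before compound addition in duplicate. Inhibition was calculated against untreated and blank controls. IC50 came from a four-parameter fit of log concentration versus inhibition.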

Data set [2] can be described thus: In vitro stability in human liver microsomes. Type of data set: in vitro ADME. The note with it: 1 μM. How it is done: (§1) Experimental Example 3: In Vitro Stability in Liver Microsome
(§2) 300 μL of the final incubation system contains 30 μL of liver microsomes (protein concentration: 5 mg/mL), 30 μL of NADPH+MgCl2, 3 μL of the test compound (in acetonitrile), and 237 μL of PBS buffer (pH 7.4), wherein the proportion of the organic solvent (acetonitrile) is 1% (volume ratio). Two duplicate samples were prepared for each specie (mouse, rat and human), and each sample was 0.3 mL. Each tube which was added with 270 μL of a mixed solution of substrate and enzyme, and NADPH, after being pre-incubated at 37° C. for 5 min, was added with 30 μL of NADPH+MgCl2 and mixed. Then 50 μL of the mixture was taken at 0 min, 15 min, 30 min and 60 min, and added with 300 μL of glacial acetonitrile containing an internal standard to terminate the reaction.
(§3) 50 μL of the incubated sample was added with 300 μL of glacial acetonitrile containing an internal standard (20 ng/mL diazepam) for precipitation, vortexed for 5 min, and centrifuged (13,000 rpm, 20° C.) for 10 min. 70 μL of supernatant was taken and diluted with 70 μL of ultrapure water. After being mixed well, 1 μL of the resulting sample was injected for analysis.

The nature of data set [3]: In vitro stability in mouse liver microsomes. The note with it: 1 μM. It counts as in vitro ADME. As to the method:
as §1, §2, §3
(Liver microsomes are vesicles of endoplasmic reticulum, rich in cytochrome P450 enzymes.)

Data set [4] in a line: In vitro stability in rat liver microsomes. Type of data set: in vitro ADME. The note with it: 1 μM. How it is done: as §1, §2, §3

T2 sequence (P10415 whole entry, species assumed): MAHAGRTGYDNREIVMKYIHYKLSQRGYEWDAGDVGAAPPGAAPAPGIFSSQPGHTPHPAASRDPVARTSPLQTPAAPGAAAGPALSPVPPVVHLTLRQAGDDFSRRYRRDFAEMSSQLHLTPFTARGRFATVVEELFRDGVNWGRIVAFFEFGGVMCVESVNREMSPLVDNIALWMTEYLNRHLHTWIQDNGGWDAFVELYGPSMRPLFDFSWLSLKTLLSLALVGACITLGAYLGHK

As for `CCS(=O)(=O)N1CCOC(CNc2ccc(S(=O)(=O)NC(=O)c3ccc(N4CCN(CC5=C(c6ccc(C(F)(F)F)cc6Cl)CC(C)(C)CC5)CC4)cc3Oc3cnc4[nH]ccc4c3)cc2[N+](=O)[O-])C1` (stereo not drawn) [Compound 57-1, 4-(4-{[2-(2-chloro-4-trifluoromethylphenyl)-4,4-dimethylcyclohex-1-enyl]methyl}-piperazin-1-yl)-N-({3-nitro-4-[((4-(ethylsulfonyl)morpholin-2-yl)methyl)amino]phenyl}sulfonyl)-2-(1H-pyrrolo[2,3-b]pyridin-5-yloxy)-benzamide], the “human platelet Caspase-3 activity, Slope” value stood at 0.08 in data set [1] (compound concentration 0.5 μM) and 0.04 in data set [1] (compound concentration 2 μM). The pIC50 – broadly, the IC50 on a negative log10 scale, so that one unit is a factor of ten – on BCL-XL/BAK was 6.57; at BCL-2/BAK it was 8.47; with RS4;11 cells (Homo sapiens, RS4-11, 72 h) it was 8.64.

In the case of `CC1(C)CCC(CN2CCN(c3ccc(C(=O)NS(=O)(=O)c4ccc(NC[C@@H]5CCCOC5)c([N+](=O)[O-])c4)c(Oc4cnc5[nH]ccc5c4)c3)CC2)=C(c2ccc(C(F)(F)F)cc2Cl)C1` [Compound 43-1, (S)-4-(4-{[2-(2-chloro-4-trifluoromethylphenyl)-4,4-dimethylcyclohex-1-enyl]methyl}-piperazin-1-yl)-N-({3-nitro-4-[((tetrahydropyran-3-yl)methyl)amino]phenyl}sulfonyl)-2-(1H-pyrrolo[2,3-b]pyridin-5-yloxy)-benzamide], the “human platelet Caspase-3 activity, Slope” value in data set [1] (compound concentration 0.5 μM) came to 0.19; in data set [1] (compound concentration 2 μM) it was 0.09. Besides, the pIC50 on BCL-XL/BAK was 6.92; at BCL-2/BAK, 8.74; in the data set with RS4;11 cells (Homo sapiens, RS4-11, 72 h), 8.72.

Consider `CC(=O)N1CCOC(CNc2ccc(S(=O)(=O)NC(=O)c3ccc(N4CCN(CC5=C(c6ccc(C(F)(F)F)cc6Cl)CC(C)(C)CC5)CC4)cc3Oc3cnc4[nH]ccc4c3)cc2[N+](=O)[O-])C1` (stereo not drawn) [Compound 9-1, 4-(4-{[2-(2-chloro-4-trifluoromethylphenyl)-4,4-dimethylcyclohex-1-enyl]methyl}-piperazin-1-yl)-N-({3-nitro-4-[((4-acetylmorpholin-2-yl)methyl)amino]phenyl}sulfonyl)-2-(1H-pyrrolo[2,3-b]pyridin-5-yloxy)-benzamide], for which the “Human Residual content after 60 min (%)” value in data set [2] was 69.8%. The pIC50 on BCL-2/BAK is 8.74; with RS4;11 cells (Homo sapiens, RS4-11, 72 h), 8.57. Besides, the “Mouse Residual content after 60 min (%)” value in data set [3] is listed as 55.7%. The “Rat Residual content after 60 min (%)” value in data set [4] stood at 101.7%.

`CC1(C)CCC(CN2CCN(c3ccc(C(=O)NS(=O)(=O)c4ccc(NC[C@@H]5COCCO5)c([N+](=O)[O-])c4)c(Oc4cnc5[nH]ccc5c4)c3)CC2)=C(c2ccc(C(F)(F)F)cc2Cl)C1` [Compound 7-1]: in data set [1] (compound concentration 1 μM), the “human platelet Caspase-3 activity, Slope” value came out at 0.48. Besides, the results for the pIC50 at BCL-XL/BAK, at BCL-2/BAK and in the data set on RS4;11 cells (72 h) were 6.54, 8.46 and 8.34, respectively.

Consider `CN1CCC(CCCNc2ccc(S(=O)(=O)NC(=O)c3ccc(N4CCN(CC5=C(c6ccc(C(F)(F)F)cc6Cl)CC(C)(C)CC5)CC4)cc3Oc3cnc4[nH]ccc4c3)cc2[N+](=O)[O-])CC1` [Compound 17-1, 4-(4-{[2-(2-chloro-4-trifluoromethylphenyl)-4,4-dimethylcyclohex-1-enyl]methyl}-piperazin-1-yl)-N-({3-nitro-4-[(3-(1-methylpiperidin-4-yl)propyl)amino]phenyl}sulfonyl)-2-(1H-pyrrolo[2,3-b]pyridin-5-yloxy)-benzamide], for which the “human platelet Caspase-3 activity, Slope” value in data set [1] (compound concentration 1 μM) is 0.48. For the same molecule, the pIC50 is 8.70 at BCL-2/BAK and 8.54 in the data set on RS4;11 cells (Homo sapiens, RS4-11, 72 h).

Consider `CN1CCC(CCNc2ccc(S(=O)(=O)NC(=O)c3ccc(N4CCN(CC5=C(c6ccc(C(F)(F)F)cc6Cl)CC(C)(C)CC5)CC4)cc3Oc3cnc4[nH]ccc4c3)cc2[N+](=O)[O-])CC1` [Compound 18-1, 4-(4-{[2-(2-chloro-4-trifluoromethylphenyl)-4,4-dimethylcyclohex-1-enyl]methyl}-piperazin-1-yl)-N-({3-nitro-4-[(2-(1-methylpiperidin-4-yl)ethyl)amino]phenyl}sulfonyl)-2-(1H-pyrrolo[2,3-b]pyridin-5-yloxy)-benzamide], for which, in data set [1] (compound concentration 1 μM), the “human platelet Caspase-3 activity, Slope” value is listed as 0.31. Besides, the pIC50 at BCL-2/BAK was 8.57; in the data set with RS4;11 cells (Homo sapiens, RS4-11, 72 h), 8.37.

As to `CC(=O)N1CCO[C@H](CNc2ccc(S(=O)(=O)NC(=O)c3ccc(N4CCN(CC5=C(c6ccc(C(F)(F)F)cc6Cl)CC(C)(C)CC5)CC4)cc3Oc3cnc4[nH]ccc4c3)cc2[N+](=O)[O-])C1` [Compound 65-1, (R)-4-(4-{[2-(2-chloro-4-trifluoromethylphenyl)-4,4-dimethylcyclohex-1-enyl]methyl}-piperazin-1-yl)-N-({3-nitro-4-[((4-acetylmorpholin-2-yl)methyl)amino]phenyl}sulfonyl)-2-(1H-pyrrolo[2,3-b]pyridin-5-yloxy)-benzamide], the “human platelet Caspase-3 activity, Slope” value in data set [1] (compound concentration 0.5 μM) is listed as 0.44; in data set [1] (compound concentration 2 μM), 0.43. The pIC50 on BCL-XL/BAK was 6.87; at BCL-2/BAK it was 8.82; with RS4;11 cells (Homo sapiens, RS4-11, 72 h), 8.74.

In the case of `CCN1CCC(CCNc2ccc(S(=O)(=O)NC(=O)c3ccc(N4CCN(CC5=C(c6ccc(C(F)(F)F)cc6Cl)CC(C)(C)CC5)CC4)cc3Oc3cnc4[nH]ccc4c3)cc2[N+](=O)[O-])CC1` [Compound 19-1, 4-(4-{[2-(2-chloro-4-trifluoromethylphenyl)-4,4-dimethylcyclohex-1-enyl]methyl}-piperazin-1-yl)-N-({3-nitro-4-[(2-(1-ethylpiperidin-4-yl)ethyl)amino]phenyl}sulfonyl)-2-(1H-pyrrolo[2,3-b]pyridin-5-yloxy)-benzamide], the “human platelet Caspase-3 activity, Slope” value in data set [1] (compound concentration 1 μM) came to 0.12. The pIC50 is 8.60 at BCL-2/BAK and 8.46 with RS4;11 cells (Homo sapiens, RS4-11, 72 h).

As to `CC1(C)CCC(CN2CCN(c3ccc(C(=O)NS(=O)(=O)c4ccc(NCCC5CCN(CCF)CC5)c([N+](=O)[O-])c4)c(Oc4cnc5[nH]ccc5c4)c3)CC2)=C(c2ccc(C(F)(F)F)cc2Cl)C1` [Compound 20-1, 4-(4-{[2-(2-chloro-4-trifluoromethylphenyl)-4,4-dimethylcyclohex-1-enyl]methyl}-piperazin-1-yl)-N-({3-nitro-4-[(2-(1-(2-fluoroethyl)piperidin-4-yl)ethyl)amino]phenyl}sulfonyl)-2-(1H-pyrrolo[2,3-b]pyridin-5-yloxy)-benzamide], in data set [1] (compound concentration 1 μM), the “human platelet Caspase-3 activity, Slope” value is given as 0.37. Further, the pIC50 was 8.68 on BCL-2/BAK and 8.41 in the data set with RS4;11 cells (Homo sapiens, RS4-11, 72 h).

The record behind these values is patent US20250257064A1, “TRIFLUOROMETHYL-SUBSTITUTED SULFONAMIDE AS BCL-2-SELECTIVE INHIBITOR” (Chia Tai Tianqing Pharmaceutical Group Co., Ltd., priority 2018, published 2025).
